# Data reported in patent US8748624B2, “Picolinamido-propanoic acid derivatives useful as glucagon receptor antagonists” (Janssen Pharmaceutica NV, priority 2011, dated 2014).
# Read-outs that look alike come from different tables or passages of the source.
# Key:
# [1] = molecular target: human glucagon receptor (GCGR) (Homo sapiens (Human), UniProt P47871); assay: Inhibition of 125I-glucagon binding to membranes from HEK293 cells expressing the human glucagon receptor
# Experimental: Inhibition ^125I-Glucagon Binding to Membranes from HEK293 Cells Expressing the Human Glucagon Receptor (GCGR)
# Full-length human GCGR (Accession Number: NM000160) subcloned into pcDNA3.1 was stably transfected into HEK293 cells (hGluc-1 HEK) and maintained under G418 selection (500 μg/mL). Cell cultures were maintained in DMEM/F12 media supplemented with 10% FBS and 1% GlutaMax. Membranes were prepared from these cells as follows: cells were harvested from T225 flasks and re-suspended in hypotonic lysis buffer, 50 mM HEPES pH 7.4 supplemented with Complete Protease inhibitors (Boehringer Mannheim, Indianapolis, Ind.). Cells were dounced 20 times on ice and spun at 700×g to remove nuclei and unlysed cells. The resulting pellet was re-suspended in hypotonic lysis buffer and the above step was repeated. Supernatants from the low speed centrifugation were combined and subsequently spun at 100K×g for 1 hr at 4° C. and the resulting pellet was re-suspended in buffer containing 50 mM HEPES pH 7.4 and 10% sucrose and the protein concentration was adjusted at 1 mg/mL as determined in the BCA assay. Membranes were aliquoted and stored at −80° C. The binding assay was performed by a filtration method in a 384 well format. Membranes at a final protein concentration of 6 μg/well were incubated with ^125I-glucagon at 0.3 nM and in the presence of compound for 2 hours at room temperature in a total reaction volume of 40 μL per well. Assay buffer consisted of 50 mM HEPES, pH 7.4, 5 mM MgCl2, 1 mM CaCl2 and 0.2% BSA. 30 μL of the reaction was then transferred to PEI treated filter plates and followed by filter aspiration. Plates were then washed 5× and allowed to dry at room temperature overnight. The next day the bottom of the plate was covered with seal tape and scintillant was added. Total counts retained by the filters were quantified with a Top Count instrument. IC50's were generated by using a non-linear regression macro driven in Excel and converted to K's.
# human GCGR = human GCGR (Homo sapiens (Human), UniProt P47871); assay: Cellular functional assay, cAMP readout (glucagon-stimulated cAMP in HEK293 cells expressing human GCGR); type: cell-based; conditions: hGluc-1 HEK cells
# Chain of human GCGR (P47871 26-477): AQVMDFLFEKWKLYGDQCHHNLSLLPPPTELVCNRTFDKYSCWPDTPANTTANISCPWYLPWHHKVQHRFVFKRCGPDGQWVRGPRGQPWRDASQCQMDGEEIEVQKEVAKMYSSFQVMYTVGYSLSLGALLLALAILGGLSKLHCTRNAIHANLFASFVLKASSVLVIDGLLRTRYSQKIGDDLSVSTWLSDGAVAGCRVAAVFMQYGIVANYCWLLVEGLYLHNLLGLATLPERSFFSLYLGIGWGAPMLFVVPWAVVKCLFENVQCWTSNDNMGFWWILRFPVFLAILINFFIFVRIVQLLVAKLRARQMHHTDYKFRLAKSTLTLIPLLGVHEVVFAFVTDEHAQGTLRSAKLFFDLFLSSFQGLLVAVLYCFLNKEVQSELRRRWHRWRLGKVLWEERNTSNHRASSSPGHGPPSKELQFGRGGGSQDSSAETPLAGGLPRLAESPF
# In short: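 HEK293 cells stably transfected with full-length human GCGR were exposed to compound for 30 min before a 5-min challenge with […] (final) glucagon. Readout was TR-FRET (LANCE) cAMP versus standard curve; IC50s fitted by non-linear regression and converted to Ki values.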
# [2] = membranes of hGluc-1 HEK cells, 125I-glucagon 0.3 nM, 2 hours room temperature, IC50 converted to Ki, average if tested more than once
# [3] = LANCE TR-FRET, IC50 converted to Ki, average if tested more than once
# Chain of human glucagon receptor (GCGR) (P47871 26-477): as above
compound,measurement,setting,value
"O=C(O)CCNC(=O)c1ccc(-c2ccccc2CNc2ccc(-c3ccc(Cl)cc3)cc2)cn1 [Compound 2, 3-(5-(2-(((4′-chloro-[1,1′-biphenyl]-4-yl)amino)methyl)phenyl)picolinamido)propanoic acid]",Ki,[1]; [2],187 nM
same,Ki,human GCGR; [3],510 nM
"O=C(O)CCNC(=O)c1ccc(-c2cc(Cl)ccc2CNc2ccc(-c3cccc(C(F)(F)F)c3)c(Cl)c2)cn1 [Compound 170, 3-(5-(5-chloro-2-(((2-chloro-3′-(trifluoromethyl)-[1,1′-biphenyl]-4-yl)amino)methyl)phenyl)picolinamido)propanoic acid]",Ki,[1]; [2],20.7 nM
same,Ki,human GCGR; [3],66.8 nM
"O=C(O)CCNC(=O)c1ccc(-c2cc(Cl)ccc2CNc2ccc(-c3c(F)cccc3Cl)cc2)cn1 [Compound 141, 3-(5-(5-chloro-2-(((2′-chloro-6′-fluoro-[1,1′-biphenyl]-4-yl)amino)methyl)phenyl)picolinamido)propanoic acid]",Ki,[1]; [2],30.9 nM
same,Ki,human GCGR; [3],138 nM
"O=C(O)CCNC(=O)c1ccc(-c2cc(Cl)ccc2CNc2ccc(-c3ccc(F)cc3)c(F)c2)cn1 [Compound 88, 3-(5-(5-chloro-2-(((2,4′-difluoro-[1,1′-biphenyl]-4-yl)amino)methyl)phenyl)picolinamido)propanoic acid]",Ki,[1]; [2],44.3 nM
same,Ki,human GCGR; [3],370 nM
"O=C(O)CCNC(=O)c1ccc(-c2cc(C(F)(F)F)ccc2CNc2ccc(-c3ccc(Cl)cc3)c(Cl)c2)cn1 [Compound 28, 3-(5-(2-(((2,4′-dichloro-[1,1′-biphenyl]-4-yl)amino)methyl)-5-(trifluoromethyl)phenyl)picolinamido)propanoic acid]",Ki,[1]; [2],28 nM
same,Ki,human GCGR; [3],31.6 nM
"O=C(O)CCNC(=O)c1ccc(-c2cc(C(F)(F)F)ccc2CNc2ccc(-c3ccc(C(F)(F)F)cc3)cc2)cn1 [Compound 29, 3-(5-(5-(trifluoromethyl)-2-(((4′-(trifluoromethyl)-[1,1′-biphenyl]-4-yl)amino)methyl)phenyl)picolinamido)propanoic acid]",Ki,[1]; [2],30.4 nM
same,Ki,human GCGR; [3],62 nM
"O=C(O)CCNC(=O)c1ccc(-c2cc(F)c(F)cc2CNc2ccc(-c3cccc(C(F)(F)F)c3Cl)c(Cl)c2)cn1 [Compound 107, 3-(5-(2-(((2,2′-dichloro-3′-(trifluoromethyl)-[1,1′-biphenyl]-4-yl)amino)methyl)-4,5-difluorophenyl)picolinamido)propanoic acid]",Ki,[1]; [2],23.7 nM
same,Ki,human GCGR; [3],54.8 nM
"CC(Nc1ccc(-c2ccc(F)cc2)cc1)c1ccc(Cl)cc1-c1ccc(C(=O)NCCC(=O)O)nc1 (stereo not drawn) [Compound 155, 3-(5-(5-chloro-2-(1-((4′-fluoro-[1,1′-biphenyl]-4-yl)amino)ethyl)phenyl)picolinamido)propanoic acid]",Ki,[1]; [2],235 nM
same,Ki,human GCGR; [3],2200 nM
"C=C(C)c1ccc(CNc2ccc(-c3ccc(F)cc3)cc2)c(-c2ccc(C(=O)NCCC(=O)O)nc2)c1 [Compound 157, 3-(5-(2-(((4′-fluoro-[1,1′-biphenyl]-4-yl)amino)methyl)-5-(prop-1-en-2-yl)phenyl)picolinamido)propanoic acid]",Ki,[1]; [2],33.5 nM
same,Ki,human GCGR; [3],113 nM
"O=C(O)CCNC(=O)c1ccc(-c2cc(Cl)ccc2CNc2ccc(-c3ccc(Cl)c(Cl)c3)cc2)cn1 [Compound 58, 3-(5-(5-chloro-2-(((3′,4′-dichloro-[1,1′-biphenyl]-4-yl)amino)methyl)phenyl)picolinamido)propanoic acid]",Ki,[1]; [2],47.3 nM
same,Ki,human GCGR; [3],58.4 nM
"O=C(O)CCNC(=O)c1ccc(-c2cc(C(F)(F)F)ccc2CNc2ccc(-c3ccc(C(F)(F)F)cc3Cl)cc2)cn1 [Compound 24, 3-(5-(2-(((2′-chloro-4′-(trifluoromethyl)-[1,1′-biphenyl]-4-yl)amino)methyl)-5-(trifluoromethyl)phenyl)picolinamido)propanoic acid]",Ki,[1]; [2],28.3 nM
same,Ki,human GCGR; [3],32.4 nM
"Cc1cccc(CNc2ccc(-c3ccc(Cl)cc3)cc2)c1-c1ccc(C(=O)NCCC(=O)O)nc1 [Compound 69, 3-(5-(2-(((4′-chloro-[1,1′-biphenyl]-4-yl)amino)methyl)-6-methylphenyl)picolinamido)propanoic acid]",Ki,[1]; [2],85.2 nM
same,Ki,human GCGR; [3],500 nM
"O=C(O)CCNC(=O)c1ccc(-c2cc(Cl)ccc2CNc2ccc(-c3ccc(F)cc3F)c(F)c2)cn1 [Compound 89, 3-(5-(5-chloro-2-(((2,2′,4′-trifluoro-[1,1′-biphenyl]-4-yl)amino)methyl)phenyl)picolinamido)propanoic acid]",Ki,[1]; [2],60.6 nM
same,Ki,human GCGR; [3],550 nM
"O=C(O)CCNC(=O)c1ccc(-c2cc(Cl)ccc2CNc2ccc(-c3ccc(C(F)(F)F)cc3)c(F)c2)cn1 [Compound 90, 3-(5-(5-chloro-2-(((2-fluoro-4′-(trifluoromethyl)-[1,1′-biphenyl]-4-yl)amino)methyl)phenyl)picolinamido)propanoic acid]",Ki,[1]; [2],33.6 nM
same,Ki,human GCGR; [3],281 nM
"O=C(O)CCNC(=O)c1ccc(-c2cc(F)c(F)cc2C(=O)Nc2ccc(-c3ccc(Cl)cc3Cl)cc2)cn1 [Compound 94, 3-(5-(2-((2′,4′-dichloro-[1,1′-biphenyl]-4-yl)carbamoyl)-4,5-difluorophenyl)picolinamido)propanoic acid]",Ki,[1]; [2],33.5 nM
same,Ki,human GCGR; [3],78.5 nM
"COc1ccc(-c2ccc(C(=O)NCCC(=O)O)nc2)c(CNc2ccc(-c3ccc(Cl)c(Cl)c3)cc2)c1 [Compound 61, 3-(5-(2-(((3′,4′-dichloro-[1,1′-biphenyl]-4-yl)amino)methyl)-4-methoxyphenyl)picolinamido)propanoic acid]",Ki,[1],97.7 nM
same,Ki,human GCGR; [3],479 nM
"O=C(O)CCNC(=O)c1ccc(-c2cc(C(F)(F)F)ccc2CNc2ccc(-c3ccc(F)cc3Cl)c(Cl)c2)cn1 [Compound 33, 3-(5-(2-(((2,2′-dichloro-4′-fluoro-[1,1′-biphenyl]-4-yl)amino)methyl)-5-(trifluoromethyl)phenyl)picolinamido)propanoic acid]",Ki,[1]; [2],21.3 nM
same,Ki,human GCGR; [3],59.8 nM
"O=C(O)CCNC(=O)c1ccc(-c2cc(F)c(F)cc2C(=O)Nc2ccc(-c3ccc(Cl)cc3)cc2)cn1 [Compound 97, 3-(5-(2-((4′-chloro-[1,1′-biphenyl]-4-yl)carbamoyl)-4,5-difluorophenyl)picolinamido)propanoic acid]",Ki,[1]; [2],57.4 nM
same,Ki,human GCGR; [3],225 nM
"O=C(O)CCNC(=O)c1ccc(-c2cc(Cl)ccc2CNc2ccc(-c3ccc(Cl)cc3Cl)c(Cl)c2)cn1 [Compound 51, 3-(5-(5-chloro-2-(((2,2′,4′-trichloro-[1,1′-biphenyl]-4-yl)amino)methyl)phenyl)picolinamido)propanoic acid]",Ki,[1]; [2],16.8 nM
same,Ki,human GCGR; [3],34.1 nM
"O=C(O)CCNC(=O)c1ccc(-c2cc(Cl)ccc2CNc2ccc(-c3ccc(F)cc3Cl)c(Cl)c2)cn1 [Compound 138, 3-(5-(5-chloro-2-(((2,2′-dichloro-4′-fluoro-[1,1′-biphenyl]-4-yl)amino)methyl)phenyl)picolinamido)propanoic acid]",Ki,[1],22.9 nM
same,Ki,human GCGR; [3],121 nM
"O=C(O)CCNC(=O)c1ccc(-c2cc(F)ccc2CNc2ccc(-c3ccc(C(F)(F)F)cc3)c(F)c2)cn1 [Compound 56, 3-(5-(5-fluoro-2-(((2-fluoro-4′-(trifluoromethyl)-[1,1′-biphenyl]-4-yl)amino)methyl)phenyl)picolinamido)propanoic acid]",Ki,[1]; [2],98.8 nM
same,Ki,human GCGR; [3],309 nM
"N#Cc1cccc(CNc2ccc(-c3ccc(Cl)cc3)cc2)c1-c1ccc(C(=O)NCCC(=O)O)nc1 [Compound 66, 3-(5-(2-(((4′-chloro-[1,1′-biphenyl]-4-yl)amino)methyl)-6-cyanophenyl)picolinamido)propanoic acid]",Ki,[1]; [2],68.7 nM
same,Ki,human GCGR; [3],1850 nM
"COc1ccc(-c2ccc(NCc3cc(Cl)cc(-c4ccc(C(=O)NCCC(=O)O)nc4)c3)cc2)cc1 [Compound M2, 3-(5-(3-chloro-5-(((4′-methoxy-[1,1′-biphenyl]-4-yl)amino)methyl)phenyl)picolinamido)propanoic acid, reference compound]",Ki,"[1]; meta-substituted comparative compounds (Table 3), membranes of hGluc-1 HEK cells, 125I-glucagon 0.3 nM",> 2700 nM
same,Ki,human GCGR; meta-substituted comparative compounds (Table 3),> 10400 nM
"O=C(O)CCNC(=O)c1ccc(-c2cc(F)c(F)cc2CNc2ccc(-c3ccc(F)c(C(F)(F)F)c3)c(Cl)c2)cn1 [Compound 102, 3-(5-(2-(((2-chloro-4′-fluoro-3′-(trifluoromethyl)-[1,1′-biphenyl]-4-yl)amino)methyl)-4,5-difluorophenyl)picolinamido)propanoic acid]",Ki,[1]; [2],21.3 nM
same,Ki,human GCGR; [3],41.8 nM
